# Test results: patent US12290513B2, “Therapeutic methods and compositions for treating movement disorders” (Vima Therapeutics, Inc., priority 2023, dated 2025)
# Read-outs that look alike come from different tables or passages of the source.
# Tests used:
# [1] = Liver microsome stability, human; settings: for CLint scaled at 1 μM / microsomal CLint at 1 μM / half-life at 1 μM: liver microsomes; for CLint scaled at 1 μM: Scale-up CLint; for microsomal CLint at 1 μM: in vitro CLint; for half-life at 1 μM: in vitro t1/2, human liver microsomes
# Method: (§1) For the liver microsome assay: • 1. The master solution was prepared according to Table 3. All liver microsome samples were purchased from BD Gentest.
# (§2) • 2. Two separate experiments were performed as follows: (i) With Cofactors (NADPH): 25 μL of 10 mM NADPH was added to the incubations. […] The reaction was started with the addition of 2.5 μL of 100 μM control compound or test compound solutions. […] Aliquots of 30 μL were taken from the reaction solution at 0.5, 5, 15, 30 and 60 minutes. The reaction was stopped by the addition of 5 volumes of cold acetonitrile with IS (100 nM alprazolam, 200 nM caffeine and 100 nM tolbutamide). Samples were centrifuged at 3,220 g for 40 minutes. Aliquots of 100 μL of the supernatant was mixed with 100 μL of ultra-pure H2O and then used for LC-MS/MS analysis to detect the levels of the test compound. • 5. All calculations were carried out using Microsoft Excel and according to standard analysis methods that are known in the art.
# [2] = Liver microsome stability, dog; settings: for CLint scaled at 1 μM / microsomal CLint at 1 μM / half-life at 1 μM: liver microsomes; for CLint scaled at 1 μM: Scale-up CLint; for microsomal CLint at 1 μM: in vitro CLint; for half-life at 1 μM: in vitro t1/2, dog liver microsomes
# Method: as §1, §2
# [3] = Liver microsome stability, rat; settings: for CLint scaled at 1 μM / microsomal CLint at 1 μM / half-life at 1 μM: liver microsomes; for CLint scaled at 1 μM: Scale-up CLint; for microsomal CLint at 1 μM: in vitro CLint; for half-life at 1 μM: in vitro t1/2, rat liver microsomes
# Method: as §1, §2
# [4] = Hepatocyte stability, rat
# Method: • 1. 10 mM stock solutions of test compounds and positive control compound were prepared in appropriate solvent (DMSO). • 2. In separate conical tubes, 10 mM test compound and positive controls were diluted to 100 μM by combining 198 μL of 50% acetonitrile/50% water and 2 μL of 10 mM stock. Preparation of Hepatocytes • 1. Incubation medium (William's E Medium supplemented with GlutaMAX) and hepatocyte thawing medium were placed in a 37C water bath and warmed for at least 15 minutes prior to use. • 2. A vial of cryopreserved hepatocytes was thawed by placing the vial in a 37C water bath and gently shaken for 2 minutes. After thawing was completed, the vial was cleaned with 70% ethanol and transferred to a biosafety cabinet. • 3. Using wide-bore pipette tips, hepatocytes were transferred into a 50 mL conical tube containing thawing medium. The 50 mL conical tube was placed into a centrifuge and spun at 100 g for 10 minutes. […] Using AO/PI Staining, cells were counted to determine the viable cell density. Cells were diluted with incubation medium to a working cell density of 0.5×10^6 viable cells/mL. Procedure for Stability Determination • 1. 198 μL of hepatocytes were pipetted into each well of a 96-well non-coated plate. The plate was placed in the incubator to allow the hepatocytes to warm for 10 minutes. • 2. 2 μL of the 100 μM test compound or positive control was pipetted into respective wells of the 96-well non-coated plate to start the reaction. The plate was returned to the incubator for the designed time points. • 3. The contents of the wells were removed in 25 μL aliquots at time points of 0.5, 15, 30, 60, 90 and 120 minutes. The aliquots were then mixed with 6 volumes (150 μL) of acetonitrile containing an internal standard, IS (100 nM alprazolam, 200 nM caffeine and 100 nM tolbutamide), to terminate the reaction. Samples were vortexed for 5 minutes and centrifuged for 45 minutes at 3,220 g. Aliquots of 100 μL of supernatant were diluted with 100 μL ultra-pure water, and the mixture was used for LC/MS/MS analysis. All incubations were performed in duplicate. Data Analysis
# All calculations were carried out using Microsoft Excel and according to standard analysis methods that are known in the art.
# [5] = Method: The resulting metabolites were analyzed by liquid chromatography-mass spectrometry, and metabolite peaks were detected and measured.
# [6] = molecular target: M4 (h) (antagonist radioligand) (Homo sapiens, UniProt P08173); settings: at the tested concentration; negative values set to zero
# Sequence of M4 (h) (antagonist radioligand) (P08173 whole entry): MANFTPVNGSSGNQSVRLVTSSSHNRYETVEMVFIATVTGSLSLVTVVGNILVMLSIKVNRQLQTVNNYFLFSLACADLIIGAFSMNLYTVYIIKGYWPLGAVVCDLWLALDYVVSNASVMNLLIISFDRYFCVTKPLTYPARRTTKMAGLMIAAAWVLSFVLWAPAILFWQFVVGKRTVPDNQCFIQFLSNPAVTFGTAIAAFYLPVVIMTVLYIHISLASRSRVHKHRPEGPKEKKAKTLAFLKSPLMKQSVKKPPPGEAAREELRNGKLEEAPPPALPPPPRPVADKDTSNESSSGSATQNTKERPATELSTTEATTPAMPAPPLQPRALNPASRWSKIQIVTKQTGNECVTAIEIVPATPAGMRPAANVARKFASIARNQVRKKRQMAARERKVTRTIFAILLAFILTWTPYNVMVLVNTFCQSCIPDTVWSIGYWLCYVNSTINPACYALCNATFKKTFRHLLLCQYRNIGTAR
# [7] = molecular target: M2 (h) (antagonist radioligand) (Homo sapiens, UniProt P08172); settings: at the tested concentration; negative values set to zero
# Sequence of M2 (h) (antagonist radioligand) (P08172 whole entry): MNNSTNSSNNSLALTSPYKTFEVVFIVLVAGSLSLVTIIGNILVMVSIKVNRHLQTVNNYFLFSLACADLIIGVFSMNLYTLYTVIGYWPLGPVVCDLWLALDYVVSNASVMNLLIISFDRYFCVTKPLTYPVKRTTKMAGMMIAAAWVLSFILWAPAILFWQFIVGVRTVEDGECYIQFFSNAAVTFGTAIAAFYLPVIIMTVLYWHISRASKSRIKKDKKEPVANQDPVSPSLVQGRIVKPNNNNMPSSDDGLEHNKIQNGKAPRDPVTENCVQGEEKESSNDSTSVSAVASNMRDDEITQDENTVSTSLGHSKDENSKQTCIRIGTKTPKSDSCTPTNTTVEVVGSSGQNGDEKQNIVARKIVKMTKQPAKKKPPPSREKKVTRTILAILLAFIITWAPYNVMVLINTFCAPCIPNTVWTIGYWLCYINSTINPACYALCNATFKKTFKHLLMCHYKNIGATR
# CYP2A6 = molecular target: T1, CYP2A6 (Homo sapiens, UniProt P11509); assay: Incubation with recombinant CYP2A6; settings: for t1/2: unit not given
# T1 sequence (P11509 1-494): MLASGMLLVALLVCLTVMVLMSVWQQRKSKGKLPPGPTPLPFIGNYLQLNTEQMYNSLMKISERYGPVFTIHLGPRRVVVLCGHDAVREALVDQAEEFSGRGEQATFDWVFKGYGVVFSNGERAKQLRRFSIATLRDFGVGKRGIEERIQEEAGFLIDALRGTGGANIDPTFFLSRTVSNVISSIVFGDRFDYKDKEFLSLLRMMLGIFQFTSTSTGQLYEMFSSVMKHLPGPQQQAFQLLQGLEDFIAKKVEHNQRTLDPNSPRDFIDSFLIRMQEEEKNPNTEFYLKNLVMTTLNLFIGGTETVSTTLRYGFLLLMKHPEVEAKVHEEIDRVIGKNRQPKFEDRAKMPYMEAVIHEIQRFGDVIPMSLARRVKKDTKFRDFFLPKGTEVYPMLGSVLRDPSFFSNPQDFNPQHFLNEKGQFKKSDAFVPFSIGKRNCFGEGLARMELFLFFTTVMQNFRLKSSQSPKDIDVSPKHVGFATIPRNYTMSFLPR
# CYP2B6 = molecular target: T2, CYP2B6 (Homo sapiens, UniProt P20813); assay: Incubation with recombinant CYP2B6; settings: for t1/2: unit not given
# T2 sequence (P20813 1-491): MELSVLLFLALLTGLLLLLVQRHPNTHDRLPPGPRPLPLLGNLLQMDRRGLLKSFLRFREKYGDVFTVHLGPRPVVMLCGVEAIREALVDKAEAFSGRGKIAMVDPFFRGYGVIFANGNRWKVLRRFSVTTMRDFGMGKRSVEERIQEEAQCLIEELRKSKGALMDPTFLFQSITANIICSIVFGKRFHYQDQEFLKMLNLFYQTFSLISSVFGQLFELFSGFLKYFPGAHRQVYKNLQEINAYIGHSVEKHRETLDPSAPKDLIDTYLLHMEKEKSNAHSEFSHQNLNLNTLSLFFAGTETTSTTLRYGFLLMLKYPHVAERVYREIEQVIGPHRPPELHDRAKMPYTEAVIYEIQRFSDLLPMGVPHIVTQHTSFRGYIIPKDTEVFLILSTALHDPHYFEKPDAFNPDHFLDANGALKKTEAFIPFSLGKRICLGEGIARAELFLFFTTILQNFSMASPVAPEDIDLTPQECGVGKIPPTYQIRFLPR
# [8] = human, human liver microsomes, Example 15, Table 20
# [9] = dog, dog liver microsomes, Example 15, Table 20
# [10] = rat, rat liver microsomes, Example 15, Table 20
SMILES,"CLint scaled at 1 μM [1, 8] [mL/min/kg]","microsomal CLint at 1 μM [1, 8] [µL/min/mg]","half-life at 1 μM ([1]; human, Example 15, Table 20) [min]","CLint scaled at 1 μM [2, 9] [mL/min/kg]","microsomal CLint at 1 μM [2, 9] [µL/min/mg]","half-life at 1 μM ([2]; dog, Example 15, Table 20) [min]","CLint scaled at 1 μM [3, 10] [mL/min/kg]","microsomal CLint at 1 μM [3, 10] [µL/min/mg]","half-life at 1 μM ([3]; rat, Example 15, Table 20) [min]","signal, M4 (h) (antagonist radioligand) [6] [%]","signal, M2 (h) (antagonist radioligand) [7] [%]",CLint (CYP2A6) [µL/min/pmol],t1/2 (CYP2A6),CLint (CYP2B6) [µL/min/pmol],t1/2 (CYP2B6),also measured
"O[C@@](CCN1CCCCC1)(c1ccccc1)C1CCCCC1 [(R)-THP, (R)-trihexyphenidyl]",20.4,19.9,69.7,318,180,7.69,5330,2190,0.63,98.88,98.95,0.00,∞,0.00,∞,"CLint scaled at 1 μM ([1]; human, human liver microsomes, Table 5): 21.8 mL/min/kg; microsomal CLint at 1 μM ([1]; human, human liver microsomes, with NADPH, Table 5): 21.2 µL/min/mg; half-life at 1 μM ([1]; human, with NADPH, 1 μM, Table 5): 65.8 min; CLint scaled at 1 μM ([2]; dog, dog liver microsomes, Table 5): 257 mL/min/kg; microsomal CLint at 1 μM ([2]; dog, dog liver microsomes, with NADPH, Table 5): 146 µL/min/mg; half-life at 1 μM ([2]; dog, with NADPH, 1 μM, Table 5): 9.51 min; CLint scaled at 1 μM ([3]; rat, rat liver microsomes, Table 5): 5810 mL/min/kg; microsomal CLint at 1 μM ([3]; rat, rat liver microsomes, with NADPH, Table 5): 2380 µL/min/mg; half-life at 1 μM ([3]; rat, with NADPH, 1 μM, Table 5): 0.58 min; CLint scaled at 1 μM ([4]; cryopreserved hepatocytes): 4420 mL/min/kg; half-life at 1 μM ([4]; cryopreserved hepatocytes): 1.47 min; hepatocyte CLint at 1 μM ([4]; cryopreserved hepatocytes): 945 µL/min/1e6 cells; metabolites detected [5]: no (R)-THP metabolites were present at a significant level above parent molecule"
"O[C@](CCN1CCCCC1)(c1ccccc1)C1CCCCC1 [(S)-THP, (S)-trihexyphenidyl]",58.9,57.3,24.2,429,244,5.72,1870,768,1.8,97.82,77.76,0.00,∞,0.00,∞,metabolites detected ([5]; human): two metabolites 18 and 19 were detected at substantial levels
"C[C@@H](C[N+](C)(C)C)OC(N)=O.[Cl-] [(S)-BTC, (S)-bethanechol]",–,–,–,–,–,–,–,–,–,–,–,–,–,–,–,"Predicted Hepatic CLH ([1]; human liver microsomes, Table 5): 0.00 mL/min/kg; in vitro t1/2 ([1]; human, microsomes): ∞; Predicted Hepatic CLH ([2]; dog liver microsomes, Table 5): 0.00 mL/min/kg; in vitro t1/2 ([2]; dog, microsomes): ∞; Predicted Hepatic CLH ([3]; rat liver microsomes, Table 5): 0.00 mL/min/kg; in vitro t1/2 ([3]; rat, microsomes): ∞; Predicted Hepatic CLH ([4]; hepatocytes): 0 mL/min/kg; in vitro t1/2 ([4]; hepatocytes): ∞"
